Reference: US20250296959A1, “B7-H3 TARGETING PEPTIDES AND CONSTRUCTS THEREOF” (Mariana Oncology Inc., priority 2024, published 2025)
Where two headings read alike, the source gives them in different places. Starred links: 1 amine or outer side, 2 acyl side, 3 side chain; linkers in the order of their positions; H or OH if unused. Positions of bridges follow the written chain, without caps; N, C: chain ends. Non-standard residues stand in square brackets, D forms with d. Residues, ends and D or L forms follow the SMILES beside them. *: point of attachment. Ala(piperidin-4-yl) = O=C([C@H](CC1CCN([*:3])CC1)N[*:1])[*:2]; DOTA = O=C(O)CN1CCN(CC(=O)O)CCN(CC(=O)*)CCN(CC(=O)O)CC1; Trp(5-F) = N[C@@H](Cc1c[nH]c2ccc(F)cc12)C(=O)O; Ala(4-THP) = N[C@@H](CC1CCOCC1)C(=O)O; Val(3-OH) = CC(C)(O)[C@H](N)C(=O)O; 4Pal = N[C@@H](Cc1ccncc1)C(=O)O; Tle = CC(C)(C)[C@H](N)C(=O)O; hLeu = CC(C)CC[C@H](N)C(=O)O; Nle = CCCC[C@H](N)C(=O)O; Dab = NCC[C@H](N)C(=O)O; Ms = CS(=O)(=O)*; Sar = CNCC(=O)O

Experiments:
[1] = target: T1, human 4lg B7-H3 (Homo sapiens, UniProt Q5ZPR3); test: Affinity determination by surface plasmon resonance (SPR) to 4Ig B7-H3; settings: 4Ig B7-H3
T1 sequence (Q5ZPR3 29-534): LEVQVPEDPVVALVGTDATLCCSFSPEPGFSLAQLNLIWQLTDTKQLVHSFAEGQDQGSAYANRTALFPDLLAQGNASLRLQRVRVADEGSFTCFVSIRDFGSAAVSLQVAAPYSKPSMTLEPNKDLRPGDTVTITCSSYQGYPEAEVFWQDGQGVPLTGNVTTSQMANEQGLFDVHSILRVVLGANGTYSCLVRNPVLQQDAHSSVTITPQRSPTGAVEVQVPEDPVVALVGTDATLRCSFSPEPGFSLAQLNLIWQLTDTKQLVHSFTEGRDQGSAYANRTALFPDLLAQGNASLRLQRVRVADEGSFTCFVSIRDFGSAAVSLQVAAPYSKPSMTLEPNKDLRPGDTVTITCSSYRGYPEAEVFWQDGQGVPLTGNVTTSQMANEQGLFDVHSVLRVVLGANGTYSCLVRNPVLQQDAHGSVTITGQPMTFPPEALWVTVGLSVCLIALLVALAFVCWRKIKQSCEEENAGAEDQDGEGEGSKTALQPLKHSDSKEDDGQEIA

[2] = test system: Calu-6 cell line; test: Net internalization of [177Lu]Lu-labeled peptide in Calu-6 cells; type: cell-based, Human; settings: 1 hour, 37° C., glycine pH 2.5 acid wash
Experimental: (§1) [^177Lu]LuCl3 was received from venders in HCl solution. For every mCi of [^177Lu]LuCl3 added to the reaction vial (1.5 mL Eppendorf vial), ammonium acetate buffer (0.2 M, pH 4.9, 100 μL, containing 1% w/v ascorbic acid and 6% v/v ethanol) and peptide conjugate (1 nmol) was added. The pH of the solution was determined to be approximately 5 by using pH strips. The reaction vial was incubated at 80° C., 700 RPM for 17-20 minutes. A sample from the reaction was analyzed by RP-HPLC using an Agilent Infinity II 1260 HPLC to determine reaction completion and radiochemical purity. HPLC conditions: Waters XBridge BEH C18 Column, 130 Å, 3.5 μm, 4.6 mm×250 mm; mobile phase: Solvent A=water (with 0.1% formic acid), solvent B=acetonitrile (with 0.1% formic acid). Gradients: 25-45% B in 10 minutes, 45-65% B in 12 minutes, 65-90% in 6 minutes at a flow rate of 0.5 mL/minute. Required amounts of the product were formulated in 1% PBSA for cell studies.
(§2) The study was conducted using Calu-6 cell line (Table 8)
(§3) Adherent cell studies: The cells were cultured in appropriate culture media (20 mL) in tissue culture treated T150 flasks at 37° C. and 5% CO2. Adherent cells were detached (60-70% confluent) using 5 mL Versene at 37° C. for 3 minutes. After confirming the viability using countess and count of detached cells using Trypan blue, the cells were centrifuged at 4° C. for 5 minutes (1,000 revolutions per minute). The cell pellet obtained was washed once with PBS and resuspended in 1% PBSA to obtain the desired cell concentration (5 million cells/mL).
Net internalization: The resuspended cells in 300 μl of 1% PBSA and counted in the gamma counter as “bound fraction” were collected in 1.5 mL Eppendorf tube and pelleted. The pelleted cells were incubated with 300 μl of 50 mM Glycine pH=2.5 for 3 minutes and then pelleted discarding the supernatant. This process was repeated one more time. The pelleted cells were washed with 300 μl of cold 1% PBSA and then resuspended in 300 μl 0.3 M NaOH. This was counted in the gamma counter as “internalized fraction”.
(§4) Calu-6 Cells are Human-Derived, Non-Engineered Lung Cancer Cell that Express B7-H3.

[3] = test system: Calu-6 cell line; test: Cell associated (bound) fraction of [177Lu]Lu-labeled peptide in Calu-6 cells; type: cell-based, Human; settings: 1 hour, 37° C.
Experimental: as §1, §2, §3
Cell associated fraction: Cells were incubated with 300 μL (0.8 μCi) of the incubation buffer (containing radiolabeled peptide [^177Lu]Lu-test peptide) for 1 hour at 37 C (Table 9). Post incubation, the cells were pelleted and washed 2 times using cold PBS+1% BSA. The supernatant and washes were combined and counted together as “unbound fraction” in a gamma counter. The cells were then resuspended in 300 μL of 1% PBS+1% BSA and counted in the gamma counter as cell associated fraction (or bound fraction).
as §4

[4] = read-out: SPR KD—25° C., 25° C. flow cell temperature

Compound	Kd ([1]; read-out: SPR KD—37° C., 37° C. flow cell temperature)	% net internalization [2]	% cell associated fraction [3]	Kd [1, 4]	Kd ([1]; SPR KD—25° C., 25° C. flow cell temperature)
CC(C)CC[C@H](NS(C)(=O)=O)C(=O)N[C@@H](Cc1ccc(O)cc1)C(=O)N[C@H]1CSSC[C@@H](C(=O)N[C@@H](Cc2c[nH]c3ccc(F)cc23)C(=O)N[C@@H](Cc2ccccc2)C(=O)N[C@H](C(=O)N[C@H](CCCCNC(=O)CN2CCN(CC(=O)O)CCN(CC(=O)O)CCN(CC(=O)O)CC2)C(=O)O)C(C)(C)O)NC(=O)[C@H](Cc2ccc(O)cc2)NC(=O)[C@H](C(C)C)NC(=O)[C@H](CC(=O)O)NC(=O)[C@H](CC2CCOCC2)NC(=O)[C@H](CC2CCNCC2)NC(=O)CNC(=O)[C@H](C(C)(C)C)NC1=O [Cpd #437, MeSO2-hLeu-Y-C-Tbg-G-PipAla-ThpA-D-V-Y-C-5FW-F-hydroxyVal-dLys(DOTA)-COOH] (Ms-[hLeu]YC[Tle]G[Ala(piperidin-4-yl)][Ala(4-THP)]DVYC[Trp(5-F)]F[Val(3-OH)][dK](DOTA)-OH; disulfide 3-11)	< 1 nM	A (%≤25)	B (25<%≤50)	–	–
CC(=O)N[C@@H](CCC(C)C)C(=O)N[C@@H](Cc1ccc(O)cc1)C(=O)N[C@H]1CSSC[C@@H](C(=O)N[C@@H](Cc2c[nH]c3ccccc23)C(=O)N[C@@H](Cc2ccccc2)C(=O)N[C@H](C(=O)N[C@H](CCCCNC(=O)CN2CCN(CC(=O)O)CCN(CC(=O)O)CCN(CC(=O)O)CC2)C(N)=O)[C@@H](C)O)NC(=O)[C@H](Cc2ccc(O)cc2)NC(=O)[C@H](C(C)C)NC(=O)[C@H](CC(=O)O)NC(=O)[C@H](Cc2ccc(O)cc2)NC(=O)[C@H](CCCCN)NC(=O)CNC(=O)[C@H](C(C)(C)C)NC1=O [compound 72, Ac-hLeu-Y-C-Tbg-G-K-Y-D-V-Y-C-W-F-Thr-dLys(DOTA)-CONH2] (Ac-[hLeu]YC[Tle]GKYDVYCWFT[dK](DOTA)-NH2; disulfide 3-11)	–	A (%≤25)	C (%>50)	< 1 nM	–
CC(=O)N[C@@H](CCC(C)C)C(=O)N[C@@H](Cc1ccc(O)cc1)C(=O)N[C@H]1CSSC[C@@H](C(=O)N[C@@H](Cc2c[nH]c3ccc(F)cc23)C(=O)N[C@@H](Cc2ccccc2)C(=O)N[C@H](C(=O)N[C@H](CCCCNC(=O)CN2CCN(CC(=O)O)CCN(CC(=O)O)CCN(CC(=O)O)CC2)C(N)=O)[C@@H](C)O)NC(=O)[C@H](Cc2ccc(O)cc2)NC(=O)[C@H](C(C)C)NC(=O)[C@H](CC(=O)O)NC(=O)[C@H](Cc2ccc(O)cc2)NC(=O)[C@H](CCCCN)NC(=O)CNC(=O)[C@H](C(C)C)NC1=O [compound 73, Ac-hLeu-Y-C-V-G-K-Y-D-V-Y-C-5FW-F-Thr-dLys(DOTA)-CONH2] (Ac-[hLeu]YCVGKYDVYC[Trp(5-F)]FT[dK](DOTA)-NH2; disulfide 3-11)	–	A (%≤25)	C (%>50)	< 1 nM	–
CC(=O)N[C@@H](CCC(C)C)C(=O)N[C@@H](Cc1ccc(O)cc1)C(=O)N[C@H]1CSSC[C@@H](C(=O)N[C@@H](Cc2c[nH]c3ccccc23)C(=O)N[C@@H](Cc2ccccc2)C(=O)N[C@H](C(=O)N[C@H](CCCCNC(=O)CN2CCN(CC(=O)O)CCN(CC(=O)O)CCN(CC(=O)O)CC2)C(N)=O)[C@@H](C)O)NC(=O)[C@H](Cc2ccc(O)cc2)NC(=O)[C@H](C(C)C)NC(=O)[C@H](CC(=O)O)NC(=O)[C@H](Cc2ccc(O)cc2)NC(=O)[C@H](CCCCN)NC(=O)CN(C)C(=O)[C@H](C(C)C)NC1=O [compound 74, Ac-hLeu-Y-C-V-Sar-K-Y-D-V-Y-C-W-F-Thr-dLys(DOTA)-CONH2] (Ac-[hLeu]YCV[Sar]KYDVYCWFT[dK](DOTA)-NH2; disulfide 3-11)	–	A (%≤25)	B (25<%≤50)	1 to 10 nM	–
CC(=O)N[C@@H](CCC(C)C)C(=O)N[C@@H](Cc1ccc(O)cc1)C(=O)N[C@H]1CSSC[C@@H](C(=O)N[C@@H](Cc2c[nH]c3ccc(F)cc23)C(=O)N[C@@H](Cc2ccccc2)C(=O)N[C@H](C(=O)N[C@H](CCCCNC(=O)CN2CCN(CC(=O)O)CCN(CC(=O)O)CCN(CC(=O)O)CC2)C(N)=O)[C@@H](C)O)NC(=O)[C@H](Cc2ccc(O)cc2)NC(=O)[C@H](C(C)C)NC(=O)[C@H](CC(=O)O)NC(=O)[C@H](Cc2ccc(O)cc2)NC(=O)[C@H](CCCCN)NC(=O)CNC(=O)[C@H](C(C)(C)C)NC1=O [compound 76, Ac-hLeu-Y-C-Tbg-G-K-Y-D-V-Y-C-5FW-F-Thr-dLys(DOTA)-CONH2] (Ac-[hLeu]YC[Tle]GKYDVYC[Trp(5-F)]FT[dK](DOTA)-NH2; disulfide 3-11)	–	A (%≤25)	C (%>50)	< 1 nM	–
CC(=O)N[C@@H](CCC(C)C)C(=O)N[C@@H](Cc1ccc(O)cc1)C(=O)N[C@H]1CSSC[C@@H](C(=O)N[C@@H](Cc2c[nH]c3ccc(F)cc23)C(=O)N[C@@H](Cc2ccccc2)C(=O)N[C@H](C(=O)N[C@H](CCCCNC(=O)CN2CCN(CC(=O)O)CCN(CC(=O)O)CCN(CC(=O)O)CC2)C(N)=O)[C@@H](C)O)NC(=O)[C@H](Cc2ccc(O)cc2)NC(=O)[C@H](C(C)C)NC(=O)[C@H](CC(=O)O)NC(=O)[C@H](Cc2ccc(O)cc2)NC(=O)[C@H](CCCCN)NC(=O)CN(C)C(=O)[C@H](C(C)C)NC1=O [compound 77, Ac-hLeu-Y-C-V-Sar-K-Y-D-V-Y-C-5FW-F-Thr-dLys(DOTA)-CONH2] (Ac-[hLeu]YCV[Sar]KYDVYC[Trp(5-F)]FT[dK](DOTA)-NH2; disulfide 3-11)	–	A (%≤25)	C (%>50)	1 to 10 nM	–
CC(=O)N[C@@H](CCC(C)C)C(=O)N[C@@H](Cc1ccc(O)cc1)C(=O)N[C@H]1CSSC[C@@H](C(=O)N[C@@H](Cc2c[nH]c3ccccc23)C(=O)N[C@@H](Cc2ccccc2)C(=O)N[C@H](C(=O)N[C@H](CCCCNC(=O)CN2CCN(CC(=O)O)CCN(CC(=O)O)CCN(CC(=O)O)CC2)C(N)=O)[C@@H](C)O)NC(=O)[C@H](Cc2ccc(O)cc2)NC(=O)[C@H](C(C)C)NC(=O)[C@H](CC(=O)O)NC(=O)[C@H](Cc2ccncc2)NC(=O)[C@H](CCCCN)NC(=O)CNC(=O)[C@H](C(C)(C)C)NC1=O [compound 157, Ac-hLeu-Y-C-Tbg-G-K-4PyA-D-V-Y-C-W-F-Thr-dLys(DOTA)-CONH2] (Ac-[hLeu]YC[Tle]GK[4Pal]DVYCWFT[dK](DOTA)-NH2; disulfide 3-11)	–	A (%≤25)	B (25<%≤50)	< 1 nM	–
CCCC[C@H](NC(C)=O)C(=O)N[C@@H](Cc1ccc(O)cc1)C(=O)N[C@H]1CSSC[C@@H](C(=O)N[C@@H](Cc2c[nH]c3ccccc23)C(=O)N[C@@H](Cc2ccccc2)C(=O)N[C@H](C(=O)N[C@H](CCCCNC(=O)CN2CCN(CC(=O)O)CCN(CC(=O)O)CCN(CC(=O)O)CC2)C(N)=O)[C@@H](C)O)NC(=O)[C@H](Cc2ccc(O)cc2)NC(=O)[C@H](C(C)C)NC(=O)[C@H](CCN)NC(=O)[C@H](Cc2ccc(O)cc2)NC(=O)[C@H](CCCCN)NC(=O)CNC(=O)[C@H](C(C)C)NC1=O [compound 552, Ac-Nle-Y-C-V-G-K-Y-Dab-V-Y-C-W-F-Thr-dLys(DOTA)-CONH2] (Ac-[Nle]YCVGKY[Dab]VYCWFT[dK](DOTA)-NH2; disulfide 3-11)	–	–	–	–	10 to 100 nM
Ac-hLeu-Y-C-Tbg-G-Pip(PEG4-DOTA)Ala-ThpA-D-V-Y-C-5FW-[(2S, 3S)beta-Me-Phe]-hydroxyVal-dAla-COOH [compound 494]	–	B (25<%≤50)	C (%>50)	–	–
